The nature of this series: Accelerated stability testing: impurity analysis by reverse phase HPLC. In kind it is physicochemical. As to the method: Each of the formulations prepared was subjected to accelerated stability testing at 40° C.
The analysis of the impurities was undertaken using reverse phase High Performance Liquid Chromatography (HPLC). HPLC is a technique that is widely used and well known in the art. HPLC can be used to measure the potency of the docetaxel where potency is defined as a percentage of the initial concentration of docetaxel. HPLC can also be used to measure the relative proportions of known and unknown impurities in a docetaxel formulation. Any suitable HPLC method which will separate the impurities may be used.
Impurity levels were calculated by peak area normalisation.

[1] abbreviates: Example 1, one month, accelerated stability 40° C.
Setting [2] is: Example 2, one month, accelerated stability 40° C.
Setting [3] is: Example 8, Initial (Docetaxel = docetaxel itself).

`CC(=O)O[C@@]12CO[C@@H]1C[C@H](O)[C@@]1(C)C(=O)[C@H](O)C3=C(C)[C@@H](OC(=O)[C@H](O)[C@@H](NC(=O)OC(C)(C)C)c4ccccc4)C[C@@](O)([C@@H](OC(=O)c4ccccc4)[C@H]21)C3(C)C` [Docetaxel, (2R,3S)-N-carboxy-3-phenylisoserine,N-tert-butylester, 13 ester with 5β-20-epoxy-1,2α,4,7β,10β,13α-hexahydroxytax-11-en-9-one 4-acetate 2 benzoate]: for the setting “Example 1, initial time point”, the “Impurity B (RRT = 0.89)” value came to 0.08 % peak area, the “Impurity E (RRT = 1.33)” value amounted to 0.07 % peak area, the “Impurity F (RRT = 1.47)” value amounted to 0.10 % peak area and the “Total Impurities” value was 0.25 % peak area. Under setting [1], the “Impurity B (RRT = 0.89)” value is 0.08 % peak area, the “Impurity E (RRT = 1.33)” value came out at 0.07 % peak area, the “Impurity F (RRT = 1.47)” value is on record as 0.10 % peak area and the “Total Impurities” value is listed as 0.25 % peak area. Further, under “Example 2, initial time point”, the “Impurity E (RRT = 1.34)” value is 0.16 % peak area, the “Impurity F (RRT = 1.48)” value was 0.09 % peak area and the “Total Impurities” value turned out to be 0.25 % peak area. Under setting [2], the “Impurity E (RRT = 1.34)” value stood at 0.16 % peak area, the “Impurity F (RRT = 1.48)” value is recorded as 0.09 % peak area and the “Total Impurities” value came to 0.25 % peak area. Besides, under setting [3], the “Impurity RRT 0.866” value came out at 0.05 % peak area, the “Impurity RRT 1.821” value is given as 0.08 % peak area and the Total impurity turned out to be 0.13 % peak area.

The values are drawn from patent publication US20090118354A1, “Liquid Pharmaceutical Formulations of Docetaxel” (MAYNE PHARMA LIMITED, priority 2005, published 2009).
